Assays:
[1] = system: CaCO2 (colon cancer); assay: Apoptosis analysis (Annexin V FITC, flow cytometry); format: cell-based, human; details: about 3 days
Description: (§1) Apoptosis was analyzed by using an Annexin V FITC Apoptosis Detection Kit (Biosource, Camarillo, Calif.), according to the manufacturer's protocol. After treatment with different small molecule compounds at various concentrations for about 3 days, cells were harvested by trypsinization, stained and immediately analyzed by flow cytometry (FACScan; Decton Dickinson, Franklin Lake, N.J.). Early apoptotic cells with exposed phosphatidylserine but intact cell membranes will bind to Annexin V-FITC, but not propidium iodide (PI). Cells in necrotic or late apoptotic stages will be labeled with both Annexin V-FITC and PI. “% apoptotic cells” or “% apoptosis” refers to the combined early and late apoptotic cells.

[2] = system: H460 (NSCLC); assay: as above; format: cell-based, human; details: 3 days
Description: as §1

[3] = system: H838 (NSCLC); assay: as above; format: cell-based, human; details: 3 days
Description: as §1

[4] = system: Normal muscle cells; assay: as above; format: cell-based, human; details: 3 days
Description: as §1
In addition, apoptosis induction after the treatment of different doses of FN1-5 or FN1-8 in normal human muscle cells was examined by flow cytometry. Normal muscle cells were plated in 6-well plates and incubated with 1, 10, 30, and 50 μM of each compound for 3 days, as above.

[5] = system: colon cancer cell lines LoVo and CaCO2; assay: Cell survival assay (crystal violet); format: cell-based, human; details: for cell killing: data not shown
Description: (§2) Typically, the small molecule compounds of the present invention were dissolved in DMSO at a concentration of 30 mM. The small molecule compounds were then tested under cell culture conditions at different concentrations ranging from 0, 10, 30, 50, to 100 uM. To determine cell survival after treatment, the cells were incubated with the small molecule compounds in 6-well plates for about 3 days. After removal of the cell culture medium, 1-ml of 0.5% crystal violet solution (prepared in 20% ethanol and 20% methanol) was added to stain the cells for 5 min. Then the crystal violet solution was rinsed clean with tap water. Cell survival was estimated based on the density of crystal stained plates.
Both, small molecule compounds FN1-5 and FN1-8 induced apoptosis in CaCO2 (Tables 2 and 3).

[6] = system: mesothelioma cell lines H290 and 211H; assay: Cell survival assay (crystal violet); format: cell-based, human; details: 30 μM, 3 days
Description: as §2
(§3) Cell killing was also tested using mesothelioma cell lines H290, 211H, MS1 and REN and different doses of the small molecule compounds FN1-5 and FN1-8. Cells were plated in 6-well plates and incubated with 1, 10, and 30 μM of each compound for 3 days, as described herein. […] (data not shown).

[7] = system: mesothelioma cell lines MS-1 and REN; assay: Cell survival assay (crystal violet); format: cell-based, human; details: 1, 10, and 30 μM, 3 days
Description: as §2, §3

[8] = system: human nasopharyngeal cancer cell lines HNE1 and HONE1; assay: Cell survival assay (crystal violet); format: cell-based; details: for cell killing: 50 μM
Description: as §2
The cell-based cytotoxicity assay described herein was used to determine the effect of small molecule compounds FN1-5 and FN1-8 in the human nasopharyngeal cancer cell lines HNE1 and HONE1. Viability of these cells was analyzed after treatment with 10, 30 and 50 μM FN1-5 or FN1-8.

[9] = system: Colon Cancer HT29 tumor; assay: Mouse Xenograft Model (Colon Cancer HT29); format: in vivo
Description: The small molecule compound FN1-8 was tested in vivo in the mouse xenograft model bearing human cancer cells. Briefly, female athymic nude mice strain NCRNU-M (5-10 weeks old, 20-25 grams in weight; Taconic, Germantown, N.Y.) was maintained in pathogen-free conditions. Three human cancer cell lines: NSCLC H460, melanoma LOX, (both showing Gli3 activation), and colon cancer HT29 (no Gli3 activation, as a negative control), were used. Ten mice were used in each group and injected s.c. with 3×10^6 cancer cells in the dorsal area in a volume of 100 μl. After inoculation, human cancer cells were allowed to grow in mice for 7 days to become visible tumor nodules. Animals were then injected with small molecule compound FN1-8 at a dose of 50 mg/kg body weight (1 mg/mouse per day). DMSO alone was used as control. The compounds and controls were adjusted in 40 ul volume for i.p. injection in the abdomens of the mice. […] Tumor size was measured every three days, and tumor volumes were calculated using width (x) and length (y) (x^2y/2, where x<y). […]
In vivo efficacy study of small molecule compound FN1-8 were also performed using a negative Mouse Xenograft Model (Colon Cancer HT29). […] Tumor size was measured with a caliper every three days. Tumor volumes were calculated using the equation x^2y (where x<y). […]

SMILES | % of apoptotic cells ([1]; CaCO2, 10 μM) [%] | % of apoptotic cells ([1]; CaCO2, 30 μM) [%] | % of apoptotic cells ([1]; CaCO2, 50 μM) [%] | % of apoptotic cells ([2]; H460, 30 μM) [%] | % of apoptotic cells ([2]; H460, 50 μM) [%] | % of apoptotic cells ([3]; H838, 30 μM) [%] | % of apoptotic cells ([3]; H838, 50 μM) [%] | % of apoptotic cells ([4]; 10 μM) [%] | % of apoptotic cells ([4]; 30 μM) [%] | % of apoptotic cells ([4]; 50 μM) [%] | cell killing [5] | cell killing [6] | cell killing [7] | cell killing [8] | tumor weight ([9]; 15 mg/kg daily 2×6 days then 30 mg/kg daily 1×6 days i.p., 43 days after inoculation) | % of apoptotic cells ([3]; H838, 10 μM) [%] | cell killing potency compared with FN1-5 [5] | cell killing potency compared with FN1-5 [8] | tumor growth ([9]; 50 mg/kg i.p. daily for 2×6 days)
O=C(NCCCCCO)C1C(c2ccccc2)=NN(c2ccccc2)C1c1ccccc1 (centres unmarked) [FN1-5, N-(5-Hydroxypentyl)-1,3,5-triphenyl-4,5-dihydro-pyrazole-4-carboxyamide] | 8.2 | 19.8 | 30.3 | 11.9 | 15.7 | 14.2 | 20.0 | 7.5 | 7.6 | 8.8 | dramatic cell killing | Dramatic cell killing | no noticeable effect | dramatic cell killing | slightly decreased the tumor weight |  |  |  | 
O=C(NCCc1ccc(O)cc1)C1C(c2ccccc2)=NN(c2ccccc2)C1c1ccccc1 (centres unmarked) [FN1-8, N-(2-(4-Hydroxyphenyl)ethyl)-1,3,5-triphenyl-4,5-dihydro-pyrazole-4-carboxyamide] |  | 19.9 | 39.4 | 12.1 | 75.2 | 18.3 | 82.3 | 7.8 | 9.3 | 9.7 | dramatic cell killing | Dramatic cell killing | no noticeable effect | dramatic cell killing |  | 10.6 | more potent than FN1-5 | more potent | not affected

Reference: patent US7714014B2, “Targeting GLI proteins in human cancer by small molecules” (The Regents of the University of California, priority 2005, dated 2010)
